Measured values: publication PMC11379888 (Nature Communications, 2024)
In brackets after ≈: the same amount, converted by molar mass. Read-outs that look alike come from different tables or passages of the source.

Assays:
C. albicans Cdr2 = conditions: cited from earlier work
C. albicans Cdr1 = conditions: cited from earlier work
purified Cdr1 = purified Cdr1 (Candida albicans, UniProt Q5ANA3); experiment: ATPase activity assay; format: biochemical, C. albicans; conditions: drug ten times Cdr1 concentration (4 μM vs 0.4 μM), GDN, relative to DMSO
[1] = tested on: Pdr5-deficient S. cerevisiae (empty vector); experiment: microbe, parasite or virus in culture; format: cell-based; conditions: Saccharomyces cerevisiae, 48 h, read-out: IC50 (fluconazole-sensitivity, OD600nm)
Cdr1 fused with EGFP = Cdr1 fused with EGFP (Candida albicans, UniProt Q5ANA3); experiment: Microscale thermophoresis; format: binding, C. albicans
[2] = tested on: C. albicans Cdr1 overexpressed in Pdr5-deficient S. cerevisiae; experiment: organism not typed; format: cell-based; conditions: 48 h, read-out: IC50 (fluconazole-sensitivity, OD600nm)
[3] = tested on: azole-resistant clinical C. albicans isolates; conditions: cited from earlier work
[4] = tested on: Cdr1 overexpressed in Pdr5-knocked-out S. cerevisiae; format: cell-based

purified Cdr1, sequence (Q5ANA3 whole entry): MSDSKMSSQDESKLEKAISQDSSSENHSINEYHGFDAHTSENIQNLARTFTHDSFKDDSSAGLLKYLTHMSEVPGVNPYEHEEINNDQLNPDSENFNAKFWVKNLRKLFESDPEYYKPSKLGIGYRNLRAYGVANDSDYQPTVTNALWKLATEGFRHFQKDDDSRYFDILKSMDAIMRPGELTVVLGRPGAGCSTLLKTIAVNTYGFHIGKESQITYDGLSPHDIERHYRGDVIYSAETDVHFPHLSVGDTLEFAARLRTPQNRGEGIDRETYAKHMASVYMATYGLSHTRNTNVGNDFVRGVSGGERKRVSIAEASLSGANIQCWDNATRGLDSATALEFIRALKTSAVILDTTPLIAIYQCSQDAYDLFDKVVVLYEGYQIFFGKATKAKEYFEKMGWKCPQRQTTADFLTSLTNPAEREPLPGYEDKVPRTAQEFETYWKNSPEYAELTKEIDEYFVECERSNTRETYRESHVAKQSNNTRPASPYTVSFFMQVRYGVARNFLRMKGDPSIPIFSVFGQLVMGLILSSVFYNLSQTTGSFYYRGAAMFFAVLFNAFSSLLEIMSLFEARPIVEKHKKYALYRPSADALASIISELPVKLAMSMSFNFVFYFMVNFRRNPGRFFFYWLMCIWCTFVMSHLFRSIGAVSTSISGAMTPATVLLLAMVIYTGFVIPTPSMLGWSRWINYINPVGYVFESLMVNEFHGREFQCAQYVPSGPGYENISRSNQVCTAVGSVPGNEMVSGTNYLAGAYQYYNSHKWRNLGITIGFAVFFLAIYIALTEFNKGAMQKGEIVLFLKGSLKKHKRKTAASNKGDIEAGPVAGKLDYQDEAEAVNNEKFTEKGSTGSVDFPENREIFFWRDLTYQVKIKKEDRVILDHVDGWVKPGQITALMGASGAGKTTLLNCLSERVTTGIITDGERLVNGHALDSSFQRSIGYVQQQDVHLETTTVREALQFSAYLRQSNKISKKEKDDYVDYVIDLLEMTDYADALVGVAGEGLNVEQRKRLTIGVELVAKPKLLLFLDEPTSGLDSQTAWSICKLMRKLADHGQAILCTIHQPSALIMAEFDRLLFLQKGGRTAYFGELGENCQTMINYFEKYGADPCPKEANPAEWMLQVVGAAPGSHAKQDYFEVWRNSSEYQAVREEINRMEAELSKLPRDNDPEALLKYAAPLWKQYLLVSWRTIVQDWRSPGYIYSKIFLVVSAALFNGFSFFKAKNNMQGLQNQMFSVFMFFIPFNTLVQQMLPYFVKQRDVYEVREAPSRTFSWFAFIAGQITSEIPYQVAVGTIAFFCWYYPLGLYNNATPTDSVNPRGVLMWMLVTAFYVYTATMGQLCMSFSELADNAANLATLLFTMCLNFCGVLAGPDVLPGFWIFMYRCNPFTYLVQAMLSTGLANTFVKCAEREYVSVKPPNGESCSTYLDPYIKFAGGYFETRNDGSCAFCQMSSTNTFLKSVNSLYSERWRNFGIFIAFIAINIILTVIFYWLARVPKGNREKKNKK
Cdr1 fused with EGFP, sequence (Q5ANA3 whole entry, the tested form may be a part): as the sequence (Q5ANA3 whole entry) above

Compound | inhibition of Cdr2 (C. albicans Cdr2) | inhibition of Cdr1 (C. albicans Cdr1) | ATP hydrolysis (relative ATPase activity, mean) (purified Cdr1) | IC50 [1] [µg/mL] | Kd (Cdr1 fused with EGFP) [µM] | IC50 [2] [µg/mL] | synergy with fluconazole [3] | Kd (Cdr1 fused with EGFP; read-out: dissociation constant (Kd), 100 nM Cdr1, PBS 0.02% DDM, 25 °C) [µM] | selectivity of inhibition Cdr1 vs Pdr5 ([4]; […], 1 μg/mL fluconazole, 0.1 μg/mL milbemycin oxime) | IC50 (milbemycin oxime-sensitivity, OD600nM) ([4]; with 1 µg/mL fluconazole) [µg/mL] | IC50 (milbemycin oxime-sensitivity, OD600nM) ([4]; with 10 µg/mL fluconazole) [µg/mL]
milbemycin α25 | potent inhibition | potent inhibition | – | – | – | – | – | – | – | – | –
OC(Cn1cncn1)(Cn1cncn1)c1ccc(F)cc1F [fluconazole] | – | – | decreases slightly | 0.31 (≈ 1.01 µM) | 61.4 | 56.6 (≈ 185 µM) | – | – | – | – | –
milbemycin oxime | – | – | 25.7% | – | – | – | strong synergistic effects with fluconazole | 0.147 | selectively inhibits Cdr1 rather than Pdr5 | 0.034 | 0.009
